The values that follow come from patent publication US20030077298A1, “Activators and ligands of PPAR-beta/delta for the treatment of skin conditions” (The Regents of the University of California, a California …, priority 2001, published 2003).

For experiment [1], the system named is normal epidermis of hairless mice. Description: Topical treatment of normal epidermis: filaggrin/loricrin immunohistochemistry and PCNA staining. The format is in vivo, mouse. An excerpt:
At the conclusion of the experiment the animals were sacrificed. Mouse skin samples were fixed with 4% formaldehyde in phosphate-buffered saline (PBS) and embedded in paraffin. Sections (6 μm) were collected on microscope slides and used for immunohistochemistry. Photographs were taken with a Zeiss microscope and digital images were captured and assembled by appropriate software. Fillagrin and loricrin protein expression were detected by immunohistochemistry using antibodies purchased from BabCo (Richmond, Calif.). Proliferating keratinocytes were quantified in sections by staining with biotinylated anti-proliferating cell nuclear antigen (PCNA) antibody (CalTag Laboratories, Burlingame, Calif.).

In experiment [2] the test system is epidermal permeability barrier of hairless mice. Briefly: Permeability barrier recovery (TEWL) after barrier disruption. As to conditions: for percent barrier recovery: pretreated 4 mM twice daily for three days. The experiment is classed as in vivo, mouse. The protocol:
Permeability of the epidermal barrier was then experimentally disrupted by the repeated application of cellophane tape, solvent extraction (repeated topical acetone), or by detergent treatment (repeated topical sodium dodecyl sulfate) until the transepidermal water loss (TEWL) reached 6-8 mg/cm^2/h. Recovery of barrier function was determined by measurement of transepidermal water loss (TEWL) with an electrolytic water analyzer (MEECO®, Warrington, Pa.) at 3 and 6 hours after barrier disruption.
Barrier recovery is reported as percent barrier recovery from the initial induced defect.

For experiment [3], the target named is T1, PPAR-alpha (Homo sapiens, UniProt Q07869).
T1 sequence (Q07869 1-468): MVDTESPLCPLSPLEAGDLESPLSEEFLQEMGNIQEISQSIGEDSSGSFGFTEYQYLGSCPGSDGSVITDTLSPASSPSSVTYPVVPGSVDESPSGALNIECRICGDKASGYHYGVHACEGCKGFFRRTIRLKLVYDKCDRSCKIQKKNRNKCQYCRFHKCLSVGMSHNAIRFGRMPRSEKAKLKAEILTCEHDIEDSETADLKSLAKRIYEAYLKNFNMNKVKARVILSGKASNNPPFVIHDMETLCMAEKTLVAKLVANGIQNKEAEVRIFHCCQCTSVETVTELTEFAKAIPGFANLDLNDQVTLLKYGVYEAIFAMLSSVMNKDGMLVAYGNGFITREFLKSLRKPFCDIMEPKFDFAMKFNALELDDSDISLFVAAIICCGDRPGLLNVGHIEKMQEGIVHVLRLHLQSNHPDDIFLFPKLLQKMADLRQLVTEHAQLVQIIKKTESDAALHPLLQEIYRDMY
Description: PPAR subtype activation (statement in description). As to conditions: "it has now been discovered"; no method given.

In experiment [4] the test system is epidermis of PPARα−/− and PPARα+/+ mice. Description: Topical treatment of PPAR-alpha knockout and wild type mice: filaggrin/loricrin immunohistochemistry. The format is in vivo, mouse. The following applies: 4 mM topical twice a day for 6 days. The protocol:
The epidermis of PPARα knockout (PPARα−/−) mice, as well as the epidermis of wild type(PPARα+/+) mice was treated with topical applications of GW1514. Expression of the in vivo differentiation markers loricrin and filaggrin was measured by immunohistochemical staining following treatment.
PPAR-alpha−/−mice in a mixed C57BL/6 and Sv129 background were compared with age matched C57BL/6 and Sv129 wild type controls. […] At the conclusion of the experiment, animals were sacrificed. Skin samples were taken and fixed with 4% formaldehyde in phosphate-buffered saline (PBS) and embedded in paraffin. Sections (6 μm) were collected on microscope slides and used for immunohistochemistry. Photographs were taken with a Zeiss microscope and digital images were captured and assembled by appropriate software. Fillagrin and loricrin protein expression were detected by immunohistochemistry using antibodies purchased from BabCo (Richmond, Calif.).

In a further experiment the test system is ears of CD-1 mice. Briefly: TPA-induced irritant contact dermatitis, ear thickness. The following applies: for effect on TPA induced increase in ear thickness: GW1514 4 mM in acetone, topical, 45 minutes and 4 hours after TPA, FIG. 9. The experiment is classed as in vivo, mouse. The protocol: TPA was applied to the inner and outer surface of the left ears of male mice. The right ears were treated with vehicle alone (acetone). […] Ear thickness was measured with a digital caliper (Mitutoyo Corp., Tokyo, Japan).

The subject of experiment [5] is cultured human keratinocytes. Description: Keratinocyte differentiation in vitro, mRNA levels by Northern blot. The experiment is classed as cell-based. The protocol:
Therefore, to determine if GW1514 could stimulate keratinocyte differentiation, in vitro changes in the levels involucrin and transglutaminase I mRNA, and involucrin protein expression were determined when cells were cultured in the presence of GW1514. In addition, levels of PPAR-betaldelta mRNA were compared in cells treated with GW1514 versus untreated controls.
(§1) Second-passage keratinocytes isolated from newborn foreskins were cultured in serum-free keratinocyte growth medium (KGM; Clonetics, San Diego, Calif., USA). […] Poly-A mRNA was isolated and transglutaminase I, involucrin and PPAR-beta/delta mRNA levels were measured by Northern blot analysis (FIG. 1).
(§2) PolyA RNA was purified using oligo(dT) cellulose (Amersham Pharmacia). RNA was electrophoresed through 1% agarose gels containing 2.2 M formaldehyde, and RNA integrity was visualized by ethidium bromide staining. The RNA was then transferred to a nylon membrane and blots were hybridized overnight at 65° C. with the appropriate ^32P-labeled cDNA probes. Probes were ^32P-labeled by random priming. Washes were performed in 0.1% SSC and 0.1 SDS for 20 minutes at room temperature and at 65° C., respectively. Autoradiography was performed at −70° C. Blots were probed with GAPDH to control for normal loading. Bands of the correct size were quantified by densitometry using QuantityOne software (Bio-Rad Laboratories Inc., Hercules, Calif., USA).

In experiment [6] the test system is cultured human keratinocytes. Briefly: Keratinocyte differentiation in vitro, involucrin protein by Western blot. The format is cell-based. The following applies: 8 μM. The protocol: as §1
Total cellular protein was isolated from cultured keratinocytes and involucrin protein levels were assessed by Western blot analysis. The cells were homogenized by sonication, their protein content was determined, and gels were loaded with equal amounts per sample and lane. Western Immunoblotting was performed using 7.5% SDS-PAGE, as described previously (Laemmli, 1970). Following transfer of protein to PVDF membranes, blots were incubated overnight with primary antibody at 4° C. Secondary antibody (peroxidase conjugated anti mouse; Amersham PharmaciaBiotech Inc., Piscataway, N.J.) was applied and blots were incubated at room temperature for 2 hours. Final detection was performed by chemiluminescence (ECL kit; Amersham). Involucrin protein was detected with a monoclonal mouse anti-human involucrin antibody.

Experiment [7] concerns hyperplastic epidermis of hairless mice. Description: Experimentally induced epidermal hyperplasia: filaggrin/loricrin and PCNA staining. The experiment is classed as in vivo, mouse. The following applies: 4 mM in acetone topically for three days after induction of hyperplasia. The protocol: The skin of 6-8 week old hairless mice (Simonsen Laboratories, Gilroy, Calif.) was treated twice a day for 3 days with acetone soaked cotton balls until the transepidermal water loss reached 6-8 mg/cm^2/h. […] At the completion of the experimental treatments, the animals were sacrificed and skin samples were taken and fixed with 4% formaldehyde in phosphate-buffered saline (PBS) and embedded in paraffin. Sections (6 μm) were collected on microscope slides and used for immunohistochemistry. Photographs were taken with a Zeiss microscope and digital images were captured and assembled by appropriate software. Fillagrin and loricrin protein expression were detected by immunohistochemistry using antibodies purchased from BabCo (Richmond, Calif.). Proliferating keratinocytes were quantified in sections by staining with biotinylated anti-proliferating cell nuclear antigen (PCNA) antibody (CalTag Laboratories, Burlingame, Calif.).

Experiment [8] has as its target T1, PPAR-alpha. The following applies: known cross-reactive PPAR agonists; cited from earlier work.
Experiment [9] relates to cultured human keratinocytes. Briefly: PPAR-beta/delta mRNA in keratinocytes treated with inflammatory stimuli (Northern blot). The format is cell-based. The following applies: LPS; IL1-beta 50 ng/ml; TNF-alpha 100 ng/ml; UV-B 30 mJ/cm^2. The protocol:
Second-passage keratinocytes isolated from newborn foreskins were cultured in serum-free keratinocyte growth medium (KGM; Clonetics, San Diego, Calif., USA). […] Control keratinocytes were treated with vehicle (0.05%) ethanol, or sham irradiated. UV exposure was performed in phosphate buffered saline which was replaced by serum free KGM after irradiation. For cytokine treatment, 0.1% bovine serum albumin was added to the medium.
as §2, with “Quantityone” for “QuantityOne”, “Laboratories,” for “Laboratories”

[10] abbreviates: 4 mM in acetone, topical, twice a day for 6 days, vs vehicle.
Where [11] appears, read: 8 μM vs vehicle (0.05% ethanol), Northern blot.

Where two headings read alike, the source gives them in different places.

As to `Cc1cc(SCc2oc(-c3ccc(C(F)(F)F)cc3)nc2C)ccc1OCC(=O)O` [GW1514, (2-methyl-4-(((4-methyl-2-(4-trifluoromethylphenyl)-1,3-oxazol-5-yl)methyl)sulfanyl)phenoxy)acetic acid], in [1] (setting [10]), the filaggrin immunohistochemical staining entry is “increased levels of immunohistochemical staining” and the loricrin immunohistochemical staining result is “increased levels of immunohistochemical staining”. Besides, the “cell proliferation (PCNA)” value in [1] (after six days treatment) was “at normal levels”. For the same compound, the “expression of in vivo differentiation markers” value in experiment [1] (after three days of treatment) is given as “increased expression”. Further, in experiment [1] (three days after treatment), the “pool of proliferating cells (PCNA)” value is “transiently increased”. Besides, the “recovery of permeability barrier function” value in experiment [2] (regardless of the method of barrier perturbation (tape, acetone, detergent)) is “accelerated recovery”. Further, the percent barrier recovery in experiment [2] (three hour post tape-strip) is roughly 50%. Also, in experiment [2] (three hours after repeated topical acetone), the percent barrier recovery entry is “about 30%”. The “activation of PPAR-alpha” value on PPAR-alpha [3] is “not also activators of PPAR-alpha”. In [4] (PPAR-alpha knockout (−/−) mice), the filaggrin immunohistochemical staining entry is reported as “increased immunohistochemical staining” and the loricrin immunohistochemical staining entry is “increased immunohistochemical staining”. In experiment [4] (wild type (+/+) mice), the filaggrin immunohistochemical staining result is reported as “increased immunohistochemical staining” and the loricrin immunohistochemical staining entry is listed as “increased immunohistochemical staining”. The “effect on TPA induced increase in ear thickness” value with ears of CD-1 mice was “reduced the magnitude”. Also, in [5] (setting [11]), the “PPAR-beta/delta mRNA levels” value is given as “increased levels”, the “involucrin mRNA levels” value is reported as “increased levels” and the “transglutaminase I mRNA levels” value is listed as “increased levels”. Besides, the “induction of differentiation markers compared with high calcium concentrations in culture medium” value in experiment [5] (8 μM, FIG. 1) is reported as “more pronounced”. Moreover, the “increase in involucrin protein expression” value in experiment [6] was found to be 5 fold. In experiment [7], the “expression of differentiation marker filaggrin” value is listed as “increase”, the “expression of differentiation marker loricrin” value is “increase” and the “number of proliferating nuclei as measured by PCNA staining” value is given as “did not produce an increase”.

On to `CCCCCCCCCCCCCC(=O)O[C@@H]1[C@@H](C)[C@@]2(O)[C@@H](C=C(CO)C[C@]3(O)C(=O)C(C)=C[C@@H]23)[C@@H]2C(C)(C)[C@]12OC(C)=O` [TPA, 12-O-tetradecanoylphorbol-13-acetate], for which the “increase in ear thickness following TPA treatment” value in the experiment on ears of CD-1 mice (10 μl of 0.03% TPA in acetone, single topical application) is recorded as “approximately 2 fold”. In the experiment with ears of CD-1 mice (10 μl of 0.03% TPA in acetone, single topical application, not shown), the “increase in ear weight following TPA treatment” value is “approximately 2 fold”.

For the compound `Cc1cccc(Nc2cc(Cl)nc(SCC(=O)O)n2)c1C` [WY 14643], the “activation of PPAR-alpha” value on PPAR-alpha [8] is “activates”.

Turning to `C[C@H]1C[C@H]2[C@@H]3CCC4=CC(=O)C=C[C@]4(C)[C@@]3(F)[C@@H](O)C[C@]2(C)[C@@]1(O)C(=O)CCl` [clobetasol], in the experiment on ears of CD-1 mice, the “effect on TPA induced increase in ear thickness” value is recorded as “anti-inflammatory effect”.

Turning to “IL1-β: cytokine used as inflammatory stimulus on cultured keratinocytes”, the “PPAR-beta/delta mRNA levels relative to untreated control” value in experiment [9] is on record as “nearly twice”.

As to lipopolysaccharide [reference compound], in experiment [9], the “PPAR-beta/delta mRNA levels relative to untreated control” value is reported as “nearly twice”.
